Assay results: patent publication US20110003867A1, “NOVEL 2-ETHYL-METHYL-AMINO-3-AMIDO-6-AMINO-PYRIDINE DERIVATIVES USEFUL AS POTASSIUM CHANNEL ACTIVATORS” (NeuroSearch A/S, priority 2007, published 2011)

Biological target: T1, human Kv72+3 channels (Homo sapiens, UniProt O43525+O43526)
T1 construct: expressed in transfected cells
Assay: Patch-clamp on HEK293 cell lines stably expressing human Kv7.2+3 channels
Format: cell-based
Settings: conc. 0.03 μM, −30 mV, 20 ms; baseline current defined as 100%; HEK293 cells
Source text: The effect obtained by these channel activators is described as a percentage increase in baseline current at a given concentration. The baseline current is defined as 100%, and an increase in current is expressed relative to this, i.e. an increase from 1 nA to 1.2 nA is reported as 120%.

I^K(%) increase in baseline current | SMILES
685% | CN(C)c1nc(NCc2ccc(F)cc2)ccc1NC(=O)Cc1cc(F)cc(F)c1 [Compound 1, N-[2-Dimethylamino-6-(4-fluoro-benzylamino)-pyridin-3-yl]-2-(3,5-difluoro-phenyl)-acetamide]
105% | CCN(C)c1nc(NCc2ccc(F)cc2)ccc1NC(=O)CC(C)(C)C [Compound 8, N-[2-Ethylmethylamino-6-(4-fluoro-benzylamino)-pyridin-3-yl]-3,3-dimethyl-butyramide]
548% | CCN(C)c1nc(NCC(C)C)ccc1NC(=O)Cc1cc(F)cc(F)c1 [Compound 11, 2-(3,5-Difluoro-phenyl)-N-[2-(ethyl-methyl-amino)-6-isobutylamino-pyridin-3-yl]-acetamide]
285% | CCN(C)c1nc(NCc2ccc(F)cc2)ccc1NC(=O)[C@@H]1C[C@H]1c1ccccc1 (relative stereo) [Compound 6, trans-2-Phenyl-cyclopropanecarboxylic acid [2-Ethylmethylamino-6-(4-fluoro-benzylamino)-pyridin-3-yl]-amide]

SMILES | I^K(%) increase in baseline current
CCN(C)c1nc(NCc2ccc(F)cc2)ccc1NC(=O)Cc1ccc(C(F)(F)F)c(F)c1 [Compound 3, N-[2-Ethylnnethylamino-6-(4-fluoro-benzylamino)-pyridin-3-yl]-2-(3-fluoro-4-trifluoromethyl-phenyl)-acetamide] | 268%
